The NIST ThermoML archive (doi:10.1016/j.jct.2003.11.008)

Experiments:
[1] = excess molar enthalpy (molar enthalpy of mixing); xn = mol fraction of the nth substance listed; conditions: 318.15 K, 101.3 kPa, Liquid
[2] = xn = mol fraction of the nth substance listed; conditions: 318.15 K, 101.3 kPa, Liquid

CCCOC(C)=O [propyl ethanoate] + CCCCCCCCC
Conditions	excess molar enthalpy, [1] [kcal/mol]	excess molar volume, [2] [m3/mol]
x1 = 0.0866	0.109	3.76e-07
x1 = 0.1486	–	5.74e-07
x1 = 0.1795	0.191	–
x1 = 0.2182	–	7.77e-07
x1 = 0.2657	0.255	–
x1 = 0.2774	–	8.96e-07
x1 = 0.344	0.294	–
x1 = 0.3451	–	9.99e-07
x1 = 0.4053	–	1.075e-06
x1 = 0.4115	0.318	–
x1 = 0.4561	–	1.101e-06
x1 = 0.4797	0.33	–
x1 = 0.5089	–	1.111e-06
x1 = 0.5358	0.328	–
x1 = 0.5631	–	1.094e-06
x1 = 0.5815	0.321	–
x1 = 0.6115	–	1.058e-06
x1 = 0.6251	0.307	–
x1 = 0.6577	–	1.012e-06
x1 = 0.6703	0.287	–
x1 = 0.7051	–	9.38e-07
x1 = 0.7182	0.262	–
x1 = 0.7328	–	8.95e-07
x1 = 0.7662	0.233	–
x1 = 0.8182	0.197	–
x1 = 0.8254	–	6.64e-07
x1 = 0.8684	0.155	–
x1 = 0.8966	–	4.35e-07
x1 = 0.9158	0.105	–
x1 = 0.9496	–	2.29e-07
x1 = 0.9598	0.0553	–

CCCOC(C)=O [propyl ethanoate] + CCCCCCC
Conditions	excess molar enthalpy [kcal/mol]	excess molar volume [m3/mol]
[1], x1 = 0.0692	0.0826	–
[1], x1 = 0.1449	0.151	–
[1], x1 = 0.2229	0.211	–
[1], x1 = 0.2968	0.251	–
[1], x1 = 0.3635	0.278	–
[1], x1 = 0.4256	0.292	–
[1], x1 = 0.484	0.295	–
[1], x1 = 0.535	0.291	–
[1], x1 = 0.5539	0.284	–
[1], x1 = 0.6002	0.27	–
[1], x1 = 0.6528	0.251	–
[1], x1 = 0.6987	0.228	–
[1], x1 = 0.7526	0.198	–
[1], x1 = 0.8089	0.158	–
[1], x1 = 0.8635	0.118	–
[1], x1 = 0.9048	0.0847	–
[1], x1 = 0.9537	0.0443	–
[2], x1 = 0.0727	–	3.32e-07
[2], x1 = 0.1288	–	4.98e-07
[2], x1 = 0.1829	–	6.45e-07
[2], x1 = 0.2463	–	7.68e-07
[2], x1 = 0.2995	–	8.38e-07
[2], x1 = 0.3536	–	8.87e-07
[2], x1 = 0.404	–	9.09e-07
[2], x1 = 0.463	–	9.23e-07
[2], x1 = 0.5069	–	9.1e-07
[2], x1 = 0.5618	–	8.85e-07
[2], x1 = 0.6574	–	7.96e-07
[2], x1 = 0.6914	–	7.52e-07
[2], x1 = 0.7928	–	5.61e-07
[2], x1 = 0.8765	–	3.62e-07
[2], x1 = 0.9436	–	1.75e-07

CCCCCCCCCCCCCCC [pentadecane] + CCOC(C)=O
Conditions	excess molar enthalpy [kcal/mol]	excess molar volume [m3/mol]
[1], x2 = 0.0901	0.134	–
[1], x2 = 0.1777	0.244	–
[1], x2 = 0.2582	0.339	–
[1], x2 = 0.3339	0.41	–
[1], x2 = 0.397	0.456	–
[1], x2 = 0.4609	0.489	–
[1], x2 = 0.5093	0.505	–
[1], x2 = 0.5557	0.511	–
[1], x2 = 0.6033	0.509	–
[1], x2 = 0.6563	0.495	–
[1], x2 = 0.6935	0.48	–
[1], x2 = 0.7292	0.457	–
[1], x2 = 0.7706	0.424	–
[1], x2 = 0.813	0.384	–
[1], x2 = 0.8538	0.332	–
[1], x2 = 0.8958	0.273	–
[1], x2 = 0.9283	0.21	–
[1], x2 = 0.9676	0.115	–
[2], x2 = 0.0932	–	4.44e-07
[2], x2 = 0.1272	–	5.87e-07
[2], x2 = 0.2314	–	9.83e-07
[2], x2 = 0.3237	–	1.237e-06
[2], x2 = 0.4048	–	1.412e-06
[2], x2 = 0.465	–	1.483e-06
[2], x2 = 0.5427	–	1.54e-06
[2], x2 = 0.5987	–	1.536e-06
[2], x2 = 0.6373	–	1.512e-06
[2], x2 = 0.6957	–	1.432e-06
[2], x2 = 0.7643	–	1.293e-06
[2], x2 = 0.8273	–	1.104e-06
[2], x2 = 0.8926	–	8.05e-07
[2], x2 = 0.9375	–	5.48e-07
[2], x2 = 0.9714	–	2.73e-07

CCCCCCCCCCCCC [tridecane] + COC(C)=O
Conditions	excess molar enthalpy [kcal/mol]	excess molar volume [m3/mol]
[1], x2 = 0.1268	0.197	–
[1], x2 = 0.2391	0.341	–
[1], x2 = 0.3316	0.448	–
[1], x2 = 0.4097	0.517	–
[1], x2 = 0.4693	0.553	–
[1], x2 = 0.5214	0.571	–
[1], x2 = 0.5635	0.578	–
[1], x2 = 0.5965	0.581	–
[1], x2 = 0.6319	0.574	–
[1], x2 = 0.6706	0.559	–
[1], x2 = 0.7114	0.534	–
[1], x2 = 0.7533	0.504	–
[1], x2 = 0.7939	0.461	–
[1], x2 = 0.8383	0.402	–
[1], x2 = 0.883	0.33	–
[1], x2 = 0.9274	0.242	–
[1], x2 = 0.9665	0.133	–
[2], x2 = 0.1152	–	6.95e-07
[2], x2 = 0.195	–	1.093e-06
[2], x2 = 0.2573	–	1.364e-06
[2], x2 = 0.3086	–	1.537e-06
[2], x2 = 0.357	–	1.665e-06
[2], x2 = 0.4302	–	1.838e-06
[2], x2 = 0.5045	–	1.919e-06
[2], x2 = 0.561	–	1.946e-06
[2], x2 = 0.6192	–	1.917e-06
[2], x2 = 0.666	–	1.849e-06
[2], x2 = 0.7125	–	1.753e-06
[2], x2 = 0.7495	–	1.651e-06
[2], x2 = 0.8399	–	1.288e-06
[2], x2 = 0.8997	–	9.51e-07
[2], x2 = 0.9425	–	6.18e-07
[2], x2 = 0.9745	–	2.97e-07
